In DBAASP:
In brackets after ≈: the same amount, converted by molar mass. Several values for one entry are separate records, joined by “and”; a condition that tells them apart may be missing. Equal entries are not always repeated. Each block holds one compound with its values, some of them ahead of it.

Columns and labels:
Test in all cases: ≥ marks a high value that may be exact or a test limit, other limits are often not marked, values filed in µg/mL are converted to µM
Candida albicans 820 = system: Candida albicans 820
Escherichia coli ML-35p = system: Escherichia coli ML-35p
[1] = system: Listeria monocytogenes EGD
[2] = system: Staphylococcus aureus ATCC 33591
[3] = system: Acinetobacter baumannii ATCC BAA-747
[4] = system: Candida albicans ATCC 10231
[5] = system: Candida albicans ATCC 2002
[6] = system: Enterococcus faecium NTCC 12697
[7] = system: Escherichia coli ATCC 25922
[8] = system: Escherichia coli ATCC 8739
[9] = system: Escherichia coli ATCC BAA-2340
[10] = system: Escherichia coli NCTC 13846
[11] = system: Klebsiella pneumoniae ATCC 43816
[12] = system: Pseudomonas aeruginosa ATCC 9027
[13] = system: Pseudomonas aeruginosa CMCCB 10104
[14] = system: Staphylococcus aureus ATCC 25923
[15] = system: Staphylococcus aureus ATCC 6538
[16] = system: Staphylococcus aureus NCTC 12493
[17] = system: Carnobacterium maltaromaticum UI49
[18] = system: Lacticaseibacillus casei NCDO 2713
[19] = system: Lacticaseibacillus casei subsp. casei NCDO 161
[20] = system: Lactiplantibacillus plantarum 965
[21] = system: Lactiplantibacillus plantarum UI50
[22] = system: Latilactobacillus curvatus 89
[23] = system: Latilactobacillus sakei 706
[24] = system: Latilactobacillus sakei NCDO 2714
[25] = system: Pediococcus acidilactici CH
[26] = system: Pediococcus pentosaceus NCDO 990
[27] = system: Pediococcus pentosaceus Pac1.0
[28] = system: Weissella viridescens NCDO 1655
[29] = system: Escherichia coli DH5alpha
[30] = system: Pseudomonas aeruginosa NBRC 13275
[31] = system: Staphylococcus aureus NBRC 13276
Escherichia coli D31 = system: Escherichia coli D31
[32] = system: Listeria fleischmannii DSM 24998
Listeria grayi DSM 20601 = system: Listeria grayi DSM 20601
[33] = system: Listeria monocytogenes DSM 20600
[34] = system: Micrococcus luteus DSM 20030
[35] = system: Bacillus subtilis CCT 2471
Bacillus thuringiensis = system: Bacillus thuringiensis
[36] = system: Enterobacter cloacae ATCC 23355
[37] = system: Escherichia coli CCT 1371
Proteus mirabilis = system: Proteus mirabilis
[38] = system: Pseudomonas aeruginosa ATCC 15442
[39] = system: Staphylococcus epidermidis
[40] = system: Staphylococcus saprophyticus

MIC (Candida albicans 820): 2.6 µM and 3.8 µM
MIC (Escherichia coli ML-35p): 2 µM and 3.1 µM
MIC [1]: 1.2 µM and 1.9 µM
MIC [2]: 4.5 µM and 7.8 µM
SMILES: CC[C@H](C)[C@@H]1NC(=O)[C@H](CC(N)=O)NC(=O)[C@@H]2CSSC[C@@H]3NC(=O)[C@H](CCCN=C(N)N)NC(=O)[C@@H](NC(=O)[C@@H](NC(=O)[C@@H](N)CCCN=C(N)N)[C@@H](C)O)CSSC[C@@H](C(=O)N[C@@H](CCCN=C(N)N)C(=O)O)NC(=O)[C@H](CSSC[C@H](NC(=O)[C@H](CCCN=C(N)N)NC(=O)CNC(=O)[C@H](CC(C)C)NC(=O)[C@H](CCCN=C(N)N)NC3=O)C(=O)N[C@@H](CO)C(=O)N[C@@H](CCCN=C(N)N)C(=O)N[C@@H](CCCN=C(N)N)C(=O)N[C@@H](CCC(=O)O)C(=O)N[C@@H](CO)C(=O)N[C@@H](Cc3ccc(O)cc3)C(=O)N[C@@H](CO)C(=O)NCC(=O)N[C@@H](CO)C(=O)N2)NC(=O)[C@H](CC(C)C)NC(=O)[C@H](CO)NC(=O)[C@H](Cc2ccc(O)cc2)NC(=O)[C@H]([C@@H](C)CC)NC(=O)[C@H](CCCN=C(N)N)NC(=O)CNC(=O)[C@H](CC(N)=O)NC1=O [RTCRCRLGRCSRRESYSGSCNINGRIYSLCCR]

MIC [3]: ≥ 512 µM
MIC [4]: > 512 µM
MIC [5]: 10.4 µM (≈ 20.2 µg/mL)
MIC [6]: ≥ 512 µM
MIC [7]: 10.4 µM (≈ 20.2 µg/mL)
MIC [8]: ≥ 32 µM
MIC [9]: ≥ 32 µM
MIC [10]: ≥ 32 µM
MIC [11]: ≥ 64 µM
MIC [12]: 64 µM (≈ 125 µg/mL)
MIC [13]: 20.7 µM (≈ 40.4 µg/mL)
MIC [14]: 5.18 µM (≈ 10.1 µg/mL)
MIC [15]: > 512 µM
MIC [16]: ≥ 256 µM
SMILES: CC[C@H](C)[C@H](NC(=O)[C@H](CC(N)=O)NC(=O)[C@@H](NC(=O)[C@H](C)N)C(C)C)C(=O)N1CCC[C@H]1C(=O)N[C@@H](Cc1ccccc1)C(=O)N[C@@H](CCCCN)C(=O)N[C@H](C(=O)N[C@@H](Cc1cnc[nH]1)C(=O)N[C@@H](Cc1ccccc1)C(=O)N[C@@H](CCCN=C(N)N)C(=O)N[C@H]1CSSC[C@@H](C(=O)O)NC(=O)[C@H](Cc2ccccc2)NC(=O)[C@H](C)NC(=O)[C@H](C)NC(=O)[C@H](CCCCN)NC1=O)C(C)C [AVNIPFKVHFRCKAAFC]

MIC [17]: 6 µM (≈ 17.9 µg/mL)
MIC [18]: 6 µM (≈ 17.9 µg/mL)
MIC [19]: 0.25 µM (≈ 0.746 µg/mL)
MIC [22]: 0.5 µM (≈ 1.49 µg/mL)
MIC [23]: 0.5 µM (≈ 1.49 µg/mL)
MIC [24]: 0.06 µM (≈ 0.179 µg/mL)
MIC [25]: 0.5 µM (≈ 1.49 µg/mL)
MIC [26]: 6 µM (≈ 17.9 µg/mL)
MIC [27]: 0.1 µM (≈ 0.299 µg/mL)
MIC [28]: 0.02 µM (≈ 0.0597 µg/mL)
SMILES: CC[C@H](C)[C@H](NC(=O)[C@H](C)NC(=O)[C@@H](NC(=O)[C@H](C)NC(=O)CNC(=O)[C@H](CCSC)NC(=O)[C@H](CCC(N)=O)NC(=O)[C@H](CC(C)C)NC(=O)[C@H](CO)NC(=O)[C@H](Cc1ccc(O)cc1)NC(=O)[C@H](C)NC(=O)[C@H](CO)NC(=O)[C@H](CO)NC(=O)[C@@H](N)CCCCN)[C@@H](C)O)C(=O)N[C@@H](CCCCN)C(=O)N[C@@H](CCC(N)=O)C(=O)N[C@H](C(=O)N[C@@H](CCCCN)C(=O)N[C@@H](CCCCN)C(=O)N[C@@H](CC(C)C)C(=O)N[C@@H](Cc1ccccc1)C(=O)N[C@@H](CCCCN)C(=O)N[C@@H](CCCCN)C(=O)N[C@@H](Cc1c[nH]c2ccccc12)C(=O)NCC(=O)N[C@@H](Cc1c[nH]c2ccccc12)C(=O)O)C(C)C [KSSAYSLQMGATAIKQVKKLFKKWGW]
MIC [20]: 0.3 µM (≈ 0.896 µg/mL)
MIC [21]: 6 µM (≈ 17.9 µg/mL)

MIC [29]: ≥ 50 µM
MIC [30]: 25 µM (≈ 62.7 µg/mL)
MIC [31]: ≥ 200 µM
SMILES: CC[C@H](C)[C@H](NC(=O)CNC(C)=O)C(=O)NCC(=O)N[C@@H](CCCCN)C(=O)N[C@@H](Cc1ccccc1)C(=O)N[C@@H](CC(C)C)C(=O)N[C@@H](Cc1cnc[nH]1)C(=O)N[C@@H](CO)C(=O)N[C@@H](C)C(=O)N[C@@H](CCCCN)C(=O)N[C@@H](CCCCN)C(=O)N[C@@H](Cc1ccccc1)C(=O)NCC(=O)N[C@@H](CCCCN)C(=O)N[C@@H](C)C(=O)N[C@@H](Cc1ccccc1)C(=O)N[C@H](C(=O)NCC(=O)N[C@@H](CCC(=O)O)C(=O)N[C@H](C(=O)N[C@@H](CCSC)C(=O)N[C@@H](CC(N)=O)C(=O)N[C@@H](CO)C(N)=O)[C@@H](C)CC)C(C)C [GIGKFLHSAKKFGKAFVGEIMNS]

SMILES: CC[C@H](C)[C@H](N)C(=O)N[C@@H](Cc1ccccc1)C(=O)N[C@@H](CCCCN)C(=O)N[C@@H](C)C(=O)N[C@H](C(=O)N[C@@H](Cc1c[nH]c2ccccc12)C(=O)N[C@@H](CO)C(=O)NCC(=O)N[C@H](C(=O)N[C@@H](CCCCN)C(=O)N[C@@H](CO)C(=O)N[C@@H](CC(C)C)C(=O)N[C@@H](Cc1ccccc1)C(=O)O)[C@@H](C)CC)[C@@H](C)CC [IFKAIWSGIKSLF]
MIC (Escherichia coli D31): 15 µM (≈ 22.6 µg/mL)
MIC [32]: 2 µM (≈ 3.02 µg/mL)
MIC (Listeria grayi DSM 20601): 2 µM (≈ 3.02 µg/mL)
MIC [33]: 2 µM (≈ 3.02 µg/mL)
MIC [34]: 2 µM (≈ 3.02 µg/mL)

MIC [35]: ≥ 60 µM
MIC (Bacillus thuringiensis): ≥ 60 µM
MIC [36]: ≥ 60 µM
MIC [7]: 6 µM (≈ 9.87 µg/mL)
MIC [37]: 6 µM (≈ 9.87 µg/mL)
MIC (Proteus mirabilis): ≥ 60 µM
MIC [38]: 30 µM (≈ 49.4 µg/mL)
MIC [14]: 6 µM (≈ 9.87 µg/mL)
MIC [15]: > 60 µM
MIC [39]: ≥ 60 µM
MIC [40]: 6 µM (≈ 9.87 µg/mL)
SMILES: CC[C@H](C)[C@H](NC(=O)CNC(=O)[C@H](CCCCN)NC(=O)[C@H](CC(C)C)NC(=O)[C@H](CC(N)=O)NC(=O)[C@@H](N)CC(C)C)C(=O)N[C@@H](Cc1ccccc1)C(=O)N[C@@H](CCCCN)C(=O)N[C@@H](CCCCN)C(=O)N[C@H](C(=O)N[C@@H](C)C(=O)N[C@@H](CO)C(=O)N[C@@H](CC(C)C)C(=O)N[C@@H](CC(C)C)C(=O)N[C@H](C(=O)O)[C@@H](C)O)C(C)C [LNLKGIFKKVASLLT]
